Measured values published in ChEMBL document CHEMBL1131881 (Bioorg Med Chem Lett, 1999).

Target: Sodium-dependent dopamine transporter (Homo sapiens, UniProt Q01959)
Test: Binding affinity towards dopamine transporter (DAT)

Sodium-dependent dopamine transporter, sequence (Q01959 whole entry): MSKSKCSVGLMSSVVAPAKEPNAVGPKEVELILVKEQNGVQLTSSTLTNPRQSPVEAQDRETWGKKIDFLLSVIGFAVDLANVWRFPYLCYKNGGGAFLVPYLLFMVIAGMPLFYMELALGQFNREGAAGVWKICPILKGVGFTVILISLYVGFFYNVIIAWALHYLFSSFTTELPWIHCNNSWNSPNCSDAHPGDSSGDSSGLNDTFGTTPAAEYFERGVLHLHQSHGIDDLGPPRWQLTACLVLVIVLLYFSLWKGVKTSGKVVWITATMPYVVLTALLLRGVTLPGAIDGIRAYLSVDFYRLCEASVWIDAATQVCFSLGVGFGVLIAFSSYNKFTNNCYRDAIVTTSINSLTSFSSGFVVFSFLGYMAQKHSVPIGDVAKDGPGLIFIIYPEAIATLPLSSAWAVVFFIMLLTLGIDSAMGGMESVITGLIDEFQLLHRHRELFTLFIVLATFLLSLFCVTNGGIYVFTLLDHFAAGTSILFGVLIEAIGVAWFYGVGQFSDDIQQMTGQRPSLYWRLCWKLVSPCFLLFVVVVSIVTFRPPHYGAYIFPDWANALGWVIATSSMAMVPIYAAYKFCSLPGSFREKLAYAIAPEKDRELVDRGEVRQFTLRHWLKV

`CCC[C@@H]1CN(C)CC[C@@H]1c1ccc(Cl)cc1` gave an IC50 of 3 nM.
